Measured values as given in patent US9284297B2, “Halofuginone analogs for inhibition of tRNA synthetases and uses thereof” (President and Fellows of Harvard College, priority 2008, dated 2016).

Experiments:
[1] = molecular target: T1, prolyl-tRNA synthetase (EPRS) (Oryctolagus cuniculus, UniProt G1T2I4); assay: Incorporation of 14C-labeled proline into tRNA in rabbit reticulocyte lysate; format: biochemical; settings: crude in vitro translation system
T1 construct: from tissue; host or cells: rabbit reticulocyte lysate
T1 sequence (G1T2I4 1-1447): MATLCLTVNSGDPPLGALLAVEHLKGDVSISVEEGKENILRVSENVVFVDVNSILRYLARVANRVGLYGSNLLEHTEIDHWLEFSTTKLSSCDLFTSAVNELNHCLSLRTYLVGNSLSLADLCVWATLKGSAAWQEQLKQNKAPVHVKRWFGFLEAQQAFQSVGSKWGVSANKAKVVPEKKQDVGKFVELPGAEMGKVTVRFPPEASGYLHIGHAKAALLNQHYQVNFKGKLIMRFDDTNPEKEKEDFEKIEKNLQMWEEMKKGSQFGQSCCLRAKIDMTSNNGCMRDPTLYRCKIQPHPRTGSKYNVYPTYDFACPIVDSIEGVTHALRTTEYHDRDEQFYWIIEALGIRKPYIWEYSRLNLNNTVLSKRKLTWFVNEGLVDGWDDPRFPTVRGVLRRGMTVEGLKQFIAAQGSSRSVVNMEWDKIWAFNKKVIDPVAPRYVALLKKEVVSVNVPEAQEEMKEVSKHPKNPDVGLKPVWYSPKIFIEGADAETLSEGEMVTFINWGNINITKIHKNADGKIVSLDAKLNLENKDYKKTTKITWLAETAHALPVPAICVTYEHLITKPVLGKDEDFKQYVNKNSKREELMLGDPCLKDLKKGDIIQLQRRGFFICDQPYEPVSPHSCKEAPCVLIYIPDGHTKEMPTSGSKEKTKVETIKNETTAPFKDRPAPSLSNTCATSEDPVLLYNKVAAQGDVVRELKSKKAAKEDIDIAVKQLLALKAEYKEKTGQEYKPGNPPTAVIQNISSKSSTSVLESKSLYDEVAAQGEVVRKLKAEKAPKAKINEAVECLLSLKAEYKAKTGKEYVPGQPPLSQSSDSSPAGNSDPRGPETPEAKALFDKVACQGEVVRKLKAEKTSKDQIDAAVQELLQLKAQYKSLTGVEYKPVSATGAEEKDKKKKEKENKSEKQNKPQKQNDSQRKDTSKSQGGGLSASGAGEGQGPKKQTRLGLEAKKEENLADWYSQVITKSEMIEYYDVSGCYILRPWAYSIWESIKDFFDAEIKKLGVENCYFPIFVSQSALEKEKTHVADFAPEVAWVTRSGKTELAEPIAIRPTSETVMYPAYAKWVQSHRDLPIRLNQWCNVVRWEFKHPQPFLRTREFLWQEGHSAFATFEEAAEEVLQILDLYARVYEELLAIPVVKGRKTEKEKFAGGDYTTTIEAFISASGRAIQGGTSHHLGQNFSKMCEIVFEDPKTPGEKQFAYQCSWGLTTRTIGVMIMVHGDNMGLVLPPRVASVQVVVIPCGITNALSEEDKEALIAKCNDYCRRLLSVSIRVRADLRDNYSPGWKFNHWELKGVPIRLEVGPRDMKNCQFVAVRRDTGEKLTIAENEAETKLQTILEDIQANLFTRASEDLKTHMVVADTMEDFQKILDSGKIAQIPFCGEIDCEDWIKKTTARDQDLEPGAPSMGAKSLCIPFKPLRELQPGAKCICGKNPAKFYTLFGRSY
Experimental: (§1) Total RNA was extracted with acidic phenol-chloroform and tRNA was isolated using miRVANA microRNA isolation kit. Radioisotope incorporation into tRNA was measured in a scintillation counter.

[2] = in vivo; cited from earlier work
[3] = molecular target: T2, methionyl tRNA synthetase (Oryctolagus cuniculus, UniProt G1SSX5); assay: Incorporation of 35S-labeled methionine into tRNA in rabbit reticulocyte lysate; format: biochemical; settings: crude in vitro translation system
T2 construct: from tissue; host or cells: rabbit reticulocyte lysate
T2 sequence (G1SSX5 1-900): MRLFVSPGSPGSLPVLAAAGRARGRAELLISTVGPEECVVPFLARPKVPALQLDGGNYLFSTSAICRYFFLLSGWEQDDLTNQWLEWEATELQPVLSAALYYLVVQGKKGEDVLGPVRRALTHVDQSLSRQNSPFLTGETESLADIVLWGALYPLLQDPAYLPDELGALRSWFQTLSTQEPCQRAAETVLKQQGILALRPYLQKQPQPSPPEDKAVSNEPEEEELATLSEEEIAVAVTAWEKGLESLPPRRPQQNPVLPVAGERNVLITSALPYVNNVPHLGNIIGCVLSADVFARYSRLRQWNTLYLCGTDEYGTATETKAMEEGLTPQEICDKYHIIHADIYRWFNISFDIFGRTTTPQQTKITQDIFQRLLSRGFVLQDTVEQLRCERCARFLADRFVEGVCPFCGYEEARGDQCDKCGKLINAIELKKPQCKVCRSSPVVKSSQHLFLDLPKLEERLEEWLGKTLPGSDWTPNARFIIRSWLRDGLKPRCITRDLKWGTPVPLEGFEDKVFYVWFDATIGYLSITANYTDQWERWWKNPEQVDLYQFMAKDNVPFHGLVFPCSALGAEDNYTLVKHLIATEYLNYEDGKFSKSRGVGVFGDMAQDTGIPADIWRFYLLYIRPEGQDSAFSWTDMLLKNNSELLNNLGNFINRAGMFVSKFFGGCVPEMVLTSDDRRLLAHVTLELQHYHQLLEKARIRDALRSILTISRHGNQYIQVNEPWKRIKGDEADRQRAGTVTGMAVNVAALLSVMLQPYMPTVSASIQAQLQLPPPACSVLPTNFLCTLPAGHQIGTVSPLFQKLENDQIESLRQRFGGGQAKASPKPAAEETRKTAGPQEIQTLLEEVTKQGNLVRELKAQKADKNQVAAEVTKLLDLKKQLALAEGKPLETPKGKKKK
Experimental: as §1

[4] = molecular target: T3, Prolyl-tRNA synthetase (EPRS) purified from rabbit liver (Oryctolagus cuniculus, UniProt G1T2I4); assay: Purified EPRS, 14C-labeled proline incorporation into tRNA; format: biochemical; settings: 10 μM, 4 μM, 1 μM HF
T3 construct: Prolyl-tRNA synthetase (EPRS) purified from rabbit liver; from tissue; host or cells: rabbit liver
T3 sequence (G1T2I4 1-1447): T1 sequence (G1T2I4 1-1447)
Experimental: Purified enzyme was incubated with 100 μg/ml bovine tRNA, 50 μM ^14C-labeled proline, 5 mM ATP, and 10 mM MgCl2 for 20 minutes. Charged tRNA was isolated by precipitation on Whatman filter paper and washing with cold 5% TCA. TCA precipitable counts were assayed by scintillation counting.

dermal ECM deposition = settings: introduced intraperitoneally, added to food, or applied locally; cited from earlier work
[5] = test system: CD4+ CD25− T cells (Th1, Th2, iTreg differentiation, proliferation, CD25), CD8+ T cells, B cells; assay: T and B cell activation, proliferation and Th1, Th2, iTreg differentiation; format: cell-based, murine
Experimental: Cytokines secreted into media supernatant were measured using the mouse Th1/Th2 cytometric bead array (CBA—BD Pharmingen) in accordance with manufacturers instructions.

O=C(CC1NCCCC1O)Cn1cnc2cc(Br)c(Cl)cc2c1=O (centres unmarked) [Compound 1, 7-bromo-6-chloro-3-[3-(3-hydroxy-2-piperidinyl)-2-oxopropyl]-4(3H)-quinazolinone]
inhibition of 14C proline incorporation into tRNA [1]: inhibitor of prolyl-tRNA synthetase (EPRS) | toxicity in humans [2]: some toxicity in humans, such as nausea, vomiting, and fatigue, and possibly bleeding complications | inhibition of 35S methionine incorporation into tRNA [3]: not a different tRNA synthetase (methionyl tRNA synthetase) | inhibition of purified EPRS (TCA precipitable counts) [4]: directly inhibits purified mammalian EPRS | dermal ECM deposition (dermal ECM deposition): reduces excess dermal ECM deposition | concentration inducing general inhibition of T and B cell activation, proliferation, and effector function [5]: > 20 nM | effect on T cell proliferation, CD25 upregulation, IL-2, TNF, IFNγ production ([5]; 1-10 nM): did not affect T cell proliferation, CD25 upregulation, or production of IL-2, TNF, or IFNγ | effect on Th1, Th2, iTreg differentiation ([5]; polarizing cytokine conditions, IFNγ, IL-4, Foxp3 expression): failed to modulate Th1, Th2 or iTreg differentiation
